From ChEMBL document CHEMBL4715709, “Synthesis and evaluation of anticonvulsant properties of new N-Mannich bases derived from 3-(1-phenylethyl)- and 3-benzyl-pyrrolidine-2,5-dione” (Bioorg Med Chem Lett, 2016)
The source made the active and inactive calls. The calls are words filed in the database; no cut-off is given here.

Legend:
[1] = Neurotoxicity in mouse assessed as induction of motor impairment at 300 mg/kg, ip measured after 4 hrs by rotarod test; assay type: toxicity, organism-based; settings: in vivo
Mus musculus [2] = assay: Anticonvulsant activity in ip dosed mouse assessed as minimum dose required for protection against ScPTZ-induced epilepsy measured after 4 hrs by subcutaneous pentylenetetrazole test; assay type: functional
[3] = Neurotoxicity activity in ip dosed mouse assessed as induction of motor impairment by rotarod test; assay type: toxicity, organism-based; settings: in vivo
Mus musculus [4] = assay: Anticonvulsant activity in mouse assessed as protection against ScPTZ-induced epilepsy at 300 mg/kg, ip measured after 0.5 hrs by subcutaneous pentylenetetrazole test; assay type: functional, organism-based
[5] = Neurotoxicity in ip dosed mouse assessed as minimum dose required for induction of motor impairment measured after 0.5 hrs by rotarod test; assay type: toxicity, organism-based; settings: in vivo
Mus musculus [6] = assay: Anticonvulsant activity in ip dosed mouse assessed as minimum dose required for protection against tonic-clonic seizures measured after 0.5 hrs by maximal electroshock seizure test; assay type: functional
Mus musculus [7] = assay: Anti-convulsant activity in mouse assessed as protection of animals against psychomotor seizures at 100 mg/kg, ip measured after 0.5 hrs by 6 Hz limbic seizure test; assay type: functional
Mus musculus [8] = assay: Anti-convulsant activity in ip dosed mouse assessed as protection against psychomotor seizures measured after 0.5 hrs by 6 Hz limbic seizure test; assay type: functional
Mus musculus [9] = assay: Anti-convulsant activity in mouse assessed as protection of animals against psychomotor seizures at 100 mg/kg, ip measured after 4 hrs by 6 Hz limbic seizure test; assay type: functional
Mus musculus [10] = assay: Anticonvulsant activity in mouse assessed as protection against tonic-clonic seizures at 300 mg/kg, ip measured after 4 hrs by maximal electroshock seizure test; assay type: functional, organism-based
[11] = Protection index, ratio of TD50 for neurotoxicity in ip dosed mouse to ED50 for anticonvulsant activity in ip dosed mouse measured after 0.5 hrs by 6 Hz limbic seizure test; assay type: toxicity, organism-based; settings: in vivo, read-out: PI
Mus musculus [12] = assay: Anticonvulsant activity in ip dosed mouse assessed as minimum dose required for protection against tonic-clonic seizures measured after 4 hrs by maximal electroshock seizure test; assay type: functional
Mus musculus [13] = assay: Anticonvulsant activity in mouse assessed as protection against ScPTZ-induced epilepsy at 300 mg/kg, ip measured after 4 hrs by subcutaneous pentylenetetrazole test; assay type: functional, organism-based
Mus musculus [14] = assay: Anticonvulsant activity in ip dosed mouse assessed as protection against ScPTZ-induced epilepsy measured after 0.5 hrs by subcutaneous pentylenetetrazole test; assay type: functional
[15] = Protection index, ratio of TD50 for neurotoxicity in ip dosed mouse to ED50 for anticonvulsant activity in ip dosed mouse measured after 0.5 hrs by subcutaneous pentylenetetrazole test; assay type: toxicity, organism-based; settings: in vivo, read-out: PI
Mus musculus [16] = assay: Anticonvulsant activity in ip dosed mouse assessed as minimum dose required for protection against ScPTZ-induced epilepsy measured after 0.5 hrs by subcutaneous pentylenetetrazole test; assay type: functional
[17] = Neurotoxicity in mouse assessed as induction of motor impairment at 300 mg/kg, ip measured after 0.5 hrs by rotarod test; assay type: toxicity, organism-based; settings: in vivo
Mus musculus [18] = assay: Anticonvulsant activity in mouse assessed as protection against tonic-clonic seizures at 300 mg/kg, ip measured after 0.5 hrs by maximal electroshock seizure test; assay type: functional, organism-based
[19] = Neurotoxicity in ip dosed mouse assessed as minimum dose required for induction of motor impairment measured after 4 hrs by rotarod test; assay type: toxicity, organism-based; settings: in vivo
[20] = Protection index, ratio of TD50 for neurotoxicity in ip dosed mouse to ED50 for anticonvulsant activity in ip dosed mouse measured after 4 hrs by subcutaneous pentylenetetrazole test; assay type: toxicity, organism-based; settings: in vivo, read-out: PI
Mus musculus [21] = assay: Anticonvulsant activity in ip dosed mouse assessed as protection against ScPTZ-induced epilepsy measured after 4 hrs by subcutaneous pentylenetetrazole test; assay type: functional

Row | Structure (SMILES) | Activity [1] | MED=>50 (Mus musculus [2]) | Activity (Mus musculus [4]) | MTD50 [5] | Activity (Mus musculus [10]) | Activity (Mus musculus [13]) | Activity (Mus musculus [18]) | also measured
1 | Cl.O=C1CC(Cc2ccccc2)C(=O)N1CN1CCN(CCO)CC1 (racemic) | Non-Toxic | 300 mg/kg | inactive | 300 mg/kg | inactive | – | – | TD50 [3]: 344 mg/kg; minimum effective dose (Mus musculus [6]): 300 mg/kg; Activity (Mus musculus [7]): 100%; ED50 (Mus musculus [8]): 71 mg/kg; Activity (Mus musculus [9]): 0%; selectivity ratio at 0.5 h [11]: 4.85
2 | CC(c1ccccc1)C1CC(=O)N(CN2CCOCC2)C1=O (racemic) | Non-Toxic | – | inactive | 300 mg/kg | – | inactive | – | MED=>50 (Mus musculus [12]): 300 mg/kg; minimum effective dose (Mus musculus [6]): 300 mg/kg
3 | CN1CCN(CN2C(=O)CC(Cc3ccccc3)C2=O)CC1.Cl (racemic) | Non-Toxic | 300 mg/kg | – | – | inactive | – | – | ED50 (Mus musculus [14]): 95 mg/kg; selectivity ratio at 0.5 h [15]: 3.41; TD50 [3]: 324 mg/kg; minimum effective dose (Mus musculus [6]): 300 mg/kg; Activity (Mus musculus [7]): 66%; MED=>50 (Mus musculus [16]): 100 mg/kg; ED50 (Mus musculus [8]): 65 mg/kg; Activity [17]: Non-Toxic; Activity (Mus musculus [9]): 0%; selectivity ratio at 0.5 h [11]: 5
4 | CC(c1ccccc1)C1CC(=O)N(CN2CCN(C3CCCCC3)CC2)C1=O (racemic) | Non-Toxic | – | – | 300 mg/kg | inactive | inactive | inactive | ED50 (Mus musculus [14]): 101 mg/kg; selectivity ratio at 0.5 h [15]: 1.94; TD50 [3]: 196 mg/kg; Activity (Mus musculus [7]): 100%; MED=>50 (Mus musculus [16]): 100 mg/kg; ED50 (Mus musculus [8]): 75 mg/kg; Activity (Mus musculus [9]): 0%; selectivity ratio at 0.5 h [11]: 2.61
5 | O=C1CC(Cc2ccccc2)C(=O)N1CN1CCN(c2ccc(Cl)cc2)CC1 (racemic) | – | – | inactive | – | inactive | inactive | inactive | MTD50 [19]: 300 mg/kg; Activity [17]: Non-Toxic
6 | O=C1CC(Cc2ccccc2)C(=O)N1CN1CCN(c2ccccc2F)CC1 (racemic) | Non-Toxic | 300 mg/kg | inactive | 300 mg/kg | inactive | – | inactive | –
7 | O=C1CC(Cc2ccccc2)C(=O)N1CN1CCN(c2ccccc2)CC1 (racemic) | Non-Toxic | – | inactive | 300 mg/kg | inactive | inactive | inactive | –
8 | O=C1CC(Cc2ccccc2)C(=O)N1CN1CCOCC1 (racemic) | Non-Toxic | 100 mg/kg | – | 300 mg/kg | – | – | – | ED50 (Mus musculus [14]): 87 mg/kg; selectivity ratio at 0.5 h [15]: 2.05; TD50 [3]: 179 mg/kg; MED=>50 (Mus musculus [12]): 300 mg/kg; minimum effective dose (Mus musculus [6]): 300 mg/kg; Activity (Mus musculus [7]): 100%; MED=>50 (Mus musculus [16]): 100 mg/kg; ED50 (Mus musculus [8]): 53 mg/kg; Activity (Mus musculus [9]): 0%; selectivity ratio at 0.5 h [11]: 3.37
9 | COC[C@@H](NC(C)=O)C(=O)NCc1ccccc1 [LACOSAMIDE] | – | – | – | – | – | – | – | ED50 (Mus musculus [8]): 6 mg/kg; selectivity ratio at 0.5 h [11]: 5.66
10 | CC(c1ccccc1)C1CC(=O)N(CN2CCN(c3ccc(Cl)cc3)CC2)C1=O (racemic) | Non-Toxic | 300 mg/kg | – | – | inactive | – | inactive | MED=>50 (Mus musculus [16]): 300 mg/kg; Activity [17]: Non-Toxic
11 | CC(c1ccccc1)C1CC(=O)N(CN2CCN(c3ncccn3)CC2)C1=O (racemic) | Non-Toxic | 300 mg/kg | inactive | 300 mg/kg | inactive | – | inactive | –
12 | O=C1CC(Cc2ccccc2)C(=O)N1CN1CCN(c2ccccc2Cl)CC1 (racemic) | Non-Toxic | 100 mg/kg | inactive | – | inactive | – | inactive | Activity [17]: Non-Toxic
13 | Cc1cccc(N2CCN(CN3C(=O)CC(Cc4ccccc4)C3=O)CC2)c1 (racemic) | Non-Toxic | 100 mg/kg | inactive | 300 mg/kg | inactive | – | – | minimum effective dose (Mus musculus [6]): 300 mg/kg
14 | O=C1CC(Cc2ccccc2)C(=O)N1CN1CCN(c2cccc(C(F)(F)F)c2)CC1 (racemic) | Non-Toxic | – | inactive | 300 mg/kg | – | inactive | – | MED=>50 (Mus musculus [12]): 300 mg/kg; minimum effective dose (Mus musculus [6]): 300 mg/kg
15 | COc1ccccc1N1CCN(CN2C(=O)CC(C(C)c3ccccc3)C2=O)CC1 (stereo not drawn) | Non-Toxic | – | – | 300 mg/kg | inactive | inactive | inactive | TD50 [3]: 128 mg/kg; selectivity ratio at 4 h [20]: 2.66; ED50 (Mus musculus [21]): 48 mg/kg; MED=>50 (Mus musculus [16]): 30 mg/kg
16 | CC(c1ccccc1)C1CC(=O)N(CN2CCN(CCO)CC2)C1=O.Cl (racemic) | Non-Toxic | 300 mg/kg | – | 300 mg/kg | inactive | – | – | TD50 [3]: 290 mg/kg; minimum effective dose (Mus musculus [6]): 300 mg/kg; Activity (Mus musculus [7]): 100%; MED=>50 (Mus musculus [16]): 300 mg/kg; ED50 (Mus musculus [8]): 30 mg/kg; Activity (Mus musculus [9]): 0%; selectivity ratio at 0.5 h [11]: 9.66
17 | O=C1CC(Cc2ccccc2)C(=O)N1CN1CCN(c2cccc(Cl)c2)CC1 (racemic) | Non-Toxic | – | inactive | 300 mg/kg | inactive | inactive | inactive | –
18 | Cc1cccc(N2CCN(CN3C(=O)CC(C(C)c4ccccc4)C3=O)CC2)c1 (racemic) | Non-Toxic | – | inactive | 300 mg/kg | inactive | inactive | inactive | –
19 | Cl.O=C1CC(Cc2ccccc2)C(=O)N1CN1CCN(Cc2ccccc2)CC1 (racemic) | Non-Toxic | 100 mg/kg | inactive | – | inactive | – | inactive | Activity [17]: Non-Toxic
20 | CC[C@@H](C(N)=O)N1CCCC1=O [LEVETIRACETAM] | – | – | – | – | – | – | – | TD50 [3]: > 500 mg/kg
21 | CC(c1ccccc1)C1CC(=O)N(CN2CCN(c3cccc(C(F)(F)F)c3)CC2)C1=O (racemic) | Non-Toxic | – | inactive | – | – | inactive | inactive | MED=>50 (Mus musculus [12]): 300 mg/kg; Activity [17]: Non-Toxic
22 | O=C1CC(Cc2ccccc2)C(=O)N1CN1CCN(c2ncccn2)CC1 (racemic) | – | 100 mg/kg | inactive | 300 mg/kg | inactive | – | inactive | MTD50 [19]: 300 mg/kg
23 | CCCC(CCC)C(=O)O [VALPROIC ACID] | – | – | – | – | – | – | – | ED50 (Mus musculus [14]): 239 mg/kg; ED50 (Mus musculus [8]): 131 mg/kg
24 | CC(c1ccccc1)C1CC(=O)N(CN2CCC(Cc3ccccc3)CC2)C1=O (racemic) | Non-Toxic | – | inactive | – | – | inactive | inactive | MED=>50 (Mus musculus [12]): 300 mg/kg; Activity [17]: Non-Toxic
25 | O=C1CC(Cc2ccccc2)C(=O)N1CN1CCN(c2ccc(F)cc2)CC1 (racemic) | – | – | inactive | 300 mg/kg | – | inactive | – | MTD50 [19]: 300 mg/kg; MED=>50 (Mus musculus [12]): 300 mg/kg; minimum effective dose (Mus musculus [6]): 300 mg/kg
26 | CC(c1ccccc1)C1CC(=O)N(CN2CCN(c3cccc(Cl)c3)CC2)C1=O (racemic) | Non-Toxic | – | inactive | 300 mg/kg | inactive | inactive | inactive | –
27 | COc1ccccc1N1CCN(CN2C(=O)CC(Cc3ccccc3)C2=O)CC1 (racemic) | Non-Toxic | – | – | 300 mg/kg | inactive | inactive | inactive | MED=>50 (Mus musculus [16]): 100 mg/kg
